Target: IDO (Homo sapiens, UniProt P14902)
Experiment: LLE_IDO_ABS_DR (IDO assay)

Chain of IDO (P14902 whole entry): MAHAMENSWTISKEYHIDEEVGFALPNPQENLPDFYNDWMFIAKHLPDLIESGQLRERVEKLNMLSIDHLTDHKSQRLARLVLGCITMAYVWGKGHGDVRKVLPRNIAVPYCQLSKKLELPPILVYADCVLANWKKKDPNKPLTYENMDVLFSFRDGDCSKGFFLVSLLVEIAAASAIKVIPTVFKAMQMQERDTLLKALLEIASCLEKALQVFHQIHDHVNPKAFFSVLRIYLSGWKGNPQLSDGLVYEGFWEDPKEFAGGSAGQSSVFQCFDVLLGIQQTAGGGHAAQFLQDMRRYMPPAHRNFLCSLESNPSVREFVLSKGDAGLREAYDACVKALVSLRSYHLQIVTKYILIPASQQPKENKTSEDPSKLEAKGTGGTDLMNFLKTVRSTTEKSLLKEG

Structure (SMILES) | IC50 [µM]
CC(C)CN(CC(C)C)c1ccc(-c2ccccc2-c2nnn[nH]2)cc1NC(=O)Nc1cc(C(N)=O)ccc1Cl [Example 254, 4-chloro-3-(3-(4-(diisobutylamino)-2′-(1H-tetrazol-5-yl)-[1,1′-biphenyl]-3-yl)ureido)benzamide] | 6.07
CC(C)CN(CCC1CC1)c1ccc(-c2ccccc2C(=O)O)cc1NC(=O)Nc1ccccc1F [Example 134, 4′-((2-cyclopropylethyl) (isobutyl)amino)-3′-(3-(2-fluorophenyl)ureido)biphenyl-2-carboxylic acid] | 0.03
Cc1ccc(NC(=O)Nc2cc(-c3ccccc3C(=O)O)ccc2N(CCC(F)(F)F)Cc2ccccc2Cl)cc1 [Example 17, 4′-((2-Chlorobenzyl)(3,3,3-trifluoropropyl)amino)-3′-(3-(p-tolyl)ureido)-[1,1′-biphenyl]-2-carboxylic acid] | 0.27
CCCN(c1ccc(-c2ccccc2-c2nnn[nH]2)cc1NC(=O)Nc1ccc(C)cc1)C1CCCC1 [Example 169, 1-(4-(cyclopentyl(propyl)amino)-2′-(1H-tetrazol-5-yl)biphenyl-3-yl)-3-p-tolylurea] | 0.00455
[2H]C([2H])(C(C)C)N(c1ccc(-c2cc(F)ccc2C(=O)O)cc1NC(=O)Nc1ccc(C)cc1)C1CCCCC1 [Example 31, 4′-(Cyclohexyl(1,1-dideutero-2-methylpropyl)amino)-5-fluoro-3′-(3-p-tolylureido)biphenyl-2-carboxylic acid] | 0.00518
CC(C)CN(CC(C)C)c1ccc(-c2ccccc2-c2nnn[nH]2)cc1NC(=O)Nc1cccc(F)c1F [Example 263, 1-(2,3-difluorophenyl)-3-(4-(diisobutylamino)-2′-(1H-tetrazol-5-yl)-[1,1′-biphenyl]-3-yl)urea] | 0.00797
CC(C)CN(c1cc(F)c(-c2cc(F)ccc2C(=O)O)cc1NC(=O)Nc1ccc(F)cc1F)C1CCCCC1 [Example 226, 4′-(cyclohexyl(isobutyl)ami-no)-5′-(3-(2,4-difluorophenyl)ureido)-2′,5-difluoro-[1,1′-biphenyl]-2-carboxylic acid] | 0.00267
CC(C)CN(c1ccc(-c2ccccc2C(=O)O)cc1NC(=O)Nc1ccccc1F)C(C)C [Example 154, 3′-(3-(2-fluorophenyl)ureido)-4′-(isobutyl(isopropyl)amino)biphenyl-2-carboxylic acid] | 0.03
COc1ccc(-c2ccc(N(C)c3ccccc3C(C)(C)C)c(NC(=O)Nc3ccccc3F)c2)cc1C(=O)O [Example 209, 4′-((2-(tert-butyl)phenyl) (methyl)amino)-3′-(3-(2-fluorophenyl)ureido)-4-methoxy-[1,1′-biphenyl]-3-carboxylic acid] | 0.56
CCC1CCCCN1c1ccc(-c2ccccc2C(=O)O)cc1NC(=O)Nc1ccccc1F (stereo not shown) [Example 116, 4′-(2-ethylpiperidin-1-yl)-3′-(3-(2-fluorophenyl)ureido) biphenyl-2-carboxylic acid] | 2.34
CC(C)CN(CC(C)C)c1ccc(-c2ccccc2-c2nnn[nH]2)cc1NC(=O)Nc1ccccc1-n1cncn1 [Example 256, 1-(2-(1H-1,2,4-triazol-1-yl)phenyl)-3-(4-(diisobutylamino)-2′-(1H-tetrazol-5-yl)-[1,1′-biphenyl]-3-yl)urea] | 4.18
CC(C)CN(c1ccc(-c2ccccc2C(=O)O)cc1NC(=O)Nc1ccc(C(F)(F)F)cc1)C1CCC(F)(F)CC1 [Example 513] | 0.01
CCN(CCOC)c1ccc(-c2ccccc2C(=O)O)cc1NC(=O)Nc1ccc(C)cc1 [Example 72, 4′-(ethyl(2-methoxyethyl)amino)-3′-(3-p-tolylureido)biphenyl-2-carboxylic acid] | 0.85
CCN(c1ccc(-c2ccccc2-c2nnn[nH]2)cc1NC(=O)Nc1ccc(C)cc1)C1CCCC1 [Example 75, 1-(4-(cyclopentyl(ethyl)amino)-2′-(1H-tetrazol-5-yl)biphenyl-3-yl)-3-p-tolylurea] | 0.00324
O=C(Nc1cc(-c2ccccc2-c2nnn[nH]2)ccc1N(CCC(F)(F)F)Cc1ccc(C(F)(F)F)cc1)Nc1ccccc1C(F)(F)F [Example 328, 1-(2′-(1H-tetrazol-5-yl)-4-((4-(trifluoromethyl)benzyl)(3,3,3-trifluoropropyl)amino)-[1,1′-biphenyl]-3-yl)-3-(2-(trifluoromethyl)phenyl)urea] | 0.39
O=C(Nc1ccc(OC(F)(F)F)cc1)Nc1cc(-c2ccccc2-c2nnn[nH]2)ccc1N(CCC(F)(F)F)Cc1ccc(C(F)(F)F)cc1 [Example 327, 1-(2′-(1H-tetrazol-5-yl)-4-((4-(trifluoromethyl)benzyl)(3,3,3-trifluoropropyl)amino)-[1,1′-biphenyl]-3-yl)-3-(4-(trifluoromethoxy)phenyl)urea] | 0.26
CC(C)CN(CC(C)C)c1ccc(-c2ccccc2-c2nnn[nH]2)cc1NC(=O)Nc1cc(F)cc(Cl)c1 [Example 251, 1-(3-chloro-5-fluorophenyl)-3-(4-(diisobutylamino)-2′-(1H-tetrazol-5-yl)-[1,1′-biphenyl]-3-yl)urea] | 0.09

Structure (SMILES) | IC50 [µM]
Cc1ccc(NC(=O)Nc2cc(-c3sccc3C(=O)O)ccc2N(CCC2CC2)CC(C)C)cc1 [Example 131, 2-(4-((2-cyclopropylethyl) (isobutyl)amino)-3-(3-p-tolylureido)phenyl) thiophene-3-carboxylic acid] | 0.05
O=C(Nc1ccc(C(F)(F)F)cc1F)Nc1cc(-c2ccccc2-c2nnn[nH]2)ccc1N1CCCc2ccccc21 [Example 364, 1-(4-(3,4-Dihydroquinolin-1(2H)-yl)-2′-(1H-tetrazol-5-yl)-[1,1′-biphenyl]-3-yl)-3-(2-fluoro-4-(trifluoromethyl)phenyl)urea] | 4.67
CC(C)CN(c1ccc(-c2ccccc2C(=O)O)cc1NC(=O)Nc1ccccc1F)C1CCC(F)(F)CC1 [Example 510, 4′-((4,4-Difluorocyclohexyl)(isobutyl)amino)-3′-(3-(2-fluorophenyl)ureido)-[1,1′-biphenyl]-2-carboxylic acid] | 0.00138
Cc1ccc(NC(=O)Nc2cc(-c3ccccc3C(=O)O)ccc2N(Cc2ccccc2)CC(F)F)cc1 [Example 20, 4′-(Benzyl(2,2-difluoroethyl)amino)-3′-(3-(p-tolyl)ureido)-[1,1′-biphenyl]-2-carboxylic acid] | 0.13
Cc1ccc(NC(=O)Nc2cc(-c3ccccc3-c3nnn[nH]3)ccc2N2CCC(F)(F)C2)cc1 [Example 315, 1-(4-(3,3-difluoropyrrolidin-1-yl)-2′-(1H-tetrazol-5-yl)-[1,1′-biphenyl]-3-yl)-3-(p-tolyl)urea] | 7.77
O=C(Nc1ccc(F)cc1F)Nc1cc(-c2ccccc2-c2nnn[nH]2)ccc1N(CCC(F)(F)F)Cc1ccc(Cl)cc1Cl [Example 336, 1-(4-((2,4-dichlorobenzyl)(3,3,3-trifluoropropyl)amino)-2′-(1H-tetrazol-5-yl)-[1,1′-biphenyl]-3-yl)-3-(2,4-difluorophenyl) urea] | 0.34
O=C(Nc1ccc(C2CC2)cc1)Nc1cc(-c2ccccc2-c2nnn[nH]2)ccc1N(CCC(F)(F)F)Cc1ccc(F)cc1 [Example 350, 1-(4-cyclopropylphenyl)-3-(4-((4-fluorobenzyl)(3,3,3-trifluoropropyl)amino)-2′-(1H-tetrazol-5-yl)-[1,1′-biphenyl]-3-yl)urea] | 0.25
CCCN(c1ccc(-c2ccccc2-c2nnn[nH]2)cc1NC(=O)Nc1ccccc1F)C1CCCC1 [Example 170, 1-(4-(cyclopentyl(propyl)amino)-2′-(1H-tetrazol-5-yl)biphenyl-3-yl)-3-(2-fluorophenyl)urea] | 0.00568
[2H]C([2H])(C(C)C)N(c1ccc(-c2ccccc2C(=O)O)cc1NC(=O)Nc1ccccc1F)C1CCCCC1 [Example 33, 4′-(Cyclohexyl(1,1-dideutero-2-methylpropyl)amino)-3′-(3-(2-fluorophenyl)ureido)biphenyl-2-carboxylic acid] | 0.00499
O=C(Nc1cc(-c2ccccc2-c2nnn[nH]2)ccc1N(CCC(F)(F)F)Cc1ccccn1)Nc1ccccc1C(F)(F)F [Example 345, 1-(4-((pyridin-2-ylmethyl)(3,3,3-trifluoropropyl)amino)-2′-(1H-tetrazol-5-yl)-[1,1′-biphenyl]-3-yl)-3-(2-(trifluoromethyl)phenyl)urea] | 0.82
CC(C)CN(CC(C)C)c1ccc(-c2ccccc2-c2nnn[nH]2)cc1NC(=O)Nc1ccc(N=[N+]=[N-])cc1 [Example 285, 1-(4-azidophenyl)-3-(4-(diisobutylamino)-2′-(1H-tetrazol-5-yl)-[1,1′-biphenyl]-3-yl)urea] | 0.00228
Cc1ccc(NC(=O)Nc2cc(-c3ccccc3-c3nnn[nH]3)ccc2N(CCC(F)(F)F)Cc2ccc(Cl)cc2Cl)cc1 [Example 505, 1-(4-((2,4-Dichlorobenzyl)(3,3,3-trifluoropropyl)amino)-2′-(1H-tetrazol-5-yl)-[1,1′-biphenyl]-3-yl)-3-(p-tolyl)urea] | 0.04
Cc1ccc(NC(=O)Nc2cc(-c3ccccc3-c3nnn[nH]3)ccc2N(CC(C)C)C(C)C)cc1 [Example 147, 1-(4-(isobutyl(isopropyl)amino)-2′-(1H-tetrazol-5-yl)biphenyl-3-yl)-3-p-tolylurea] | 0.01
CC(C)CN(CC(C)C)c1ccc(-c2ccccc2-c2nnn[nH]2)cc1NC(=O)Nc1ccc(F)c(Cl)c1 [Example 286, 1-(3-chloro-4-fluorophenyl)-3-(4-(diisobutylamino)-2′-(1H-tetrazol-5-yl)biphenyl-3-yl)urea] | 0.11
CC(C)CN(CC(C)C)c1ccc(-c2ccccc2-c2nnn[nH]2)cc1NC(=O)Nc1cccc(-n2ccnc2)c1 [Example 267, 1-(3-(1H-imidazol-1-yl)phenyl)-3-(4-(diisobutylamino)-2′-(1H-tetrazol-5-yl)-[1,1′-biphenyl]-3-yl)urea] | 1.46
CCCCN(CCCC)c1ccc(-c2ccccc2-c2nnn[nH]2)cc1NC(=O)Nc1ccc(C)cc1 [Example 88, 1-(4-(dibutylamino)-2′-(1H-tetrazol-5-yl)biphenyl-3-yl)-3-p-tolylurea] | 0.00982
CC(C)CN(CC(C)C)c1ccc(-c2ccccc2-c2nnn[nH]2)cc1NC(=O)Nc1nccs1 [Example 7, 1-(4-(Diisobutylamino)-2′-(1H-tetrazol-5-yl)biphenyl-3-yl)-3-(thiazol-2-yl)urea] | 0.02
